Laboratory results as given in patent US7470549B2, “Measurement method using biosensor” (FUJIFILM Corporation, priority 2004, dated 2008).

How the values were obtained:
[1] = target: T1, Trypsin (Bos taurus, UniProt P00760); test: Selection of compounds by affinity: SPR binding to trypsin-immobilized PMMA/PEO sensor chip (Example 6); conditions: for Binding amount (RU): left at rest 10 minutes, change of resonance signal, PMMA sensor chip
T1 sequence (P00760 24-246): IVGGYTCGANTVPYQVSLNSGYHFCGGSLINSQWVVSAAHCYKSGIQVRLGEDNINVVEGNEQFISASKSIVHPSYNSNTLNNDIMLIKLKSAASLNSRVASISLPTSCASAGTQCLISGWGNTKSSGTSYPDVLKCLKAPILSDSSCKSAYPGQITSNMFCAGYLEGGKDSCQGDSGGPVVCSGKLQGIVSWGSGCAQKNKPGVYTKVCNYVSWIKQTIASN
Method: Using the SPR system used for screening shown in FIG. 1, immobilization of a ligand, the binding measurement of compounds, and selection of compounds were carried out.
Thereafter, it was placed in a spin coater (MODEL ASS-303; manufactured by ABLE) and then rotated at 1,000 rpm. 50 μl of a methyl ethyl ketone solution containing polymethyl methacrylate (2 mg/ml) was added dropwise to the center of the cover glass coated with gold via evaporation, and 2 minutes later, the rotation was terminated. The thickness of the membrane was measured by the ellipsometry method (In-Situ Ellipsometer MAUS-101; manufactured by Five Lab). […] This sample is called a PMMA surface chip. This PMMA surface chip was immersed in an NaOH aqueous solution (1 N) at 40° C. for 16 hours, followed by washing with water 3 times. This sample is called a PMMA/COOH surface chip. This PMMA/COOH surface chip was immersed in 2 ml of a mixed solution of 1-ethyl-2,3-dimethylaminopropylcarbodiimide (400 mM) and N-hydroxysuccinimide (100 mM) for 60 minutes. Thereafter, it was immersed in 2 ml of an α-amino-polyethyleneoxy-ω-carboxylic acid (mean molecular weight: 5,000) aqueous solution (10 mM) for 16 hours. The resultant product was finally washed with water 5 times. The thus obtained sensor chip was used in the following operation.
(§1) A mixed solution of 1-ethyl-2,3-dimethylaminopropylcarbodiimide (400 mM) and N-hydroxysuccinimide (100 mM) was added to the sensor chip produced in (1) above, followed by leaving at rest for 20 minute. Thereafter, the resultant product was washed with an HBS-N buffer containing 10 mM CaCl2. Subsequently, trypsin (1 mg/ml, 10 mM CaCl2-containing HBS-N buffer) was added thereto, followed by leaving at rest for 30 minutes. Thereafter, the resultant product was washed with a 10 mM CaCl2-containing HBS-N buffer.
Thereafter, an ethanolamine/HCl solution (1M, pH 8.5) was added to the measurement chip, followed by washing with an HBS-N buffer (manufactured by Biacore).
The sensor chip on which trypsin had been immobilized was washed with an HBS-N buffer.

[2] = target: T1, Trypsin; test: SPR measurement of substance binding to trypsin immobilized on hydrogel-coated chip (Examples 1-4); conditions: for Bond of substance interacting with trypsin (RU): 0.002 mM solution, left at rest 10 minutes, change of resonance signal, hydrogel-coated chip; for Binding to trypsin (in words): comment on Table 1
Method: Trypsin (manufactured by Worthington) was immobilized on a measurement chip. Interaction measurement was carried out using a surface plasmon resonance measurement device.
as §1, with “solution consisting” for “solution”, “a hydrogel-coated chip,” for “the sensor chip produced in (1) above,”, “buffer. The used HBS-N buffer is composed of 0.01 mol/l (pH 7.4) HEPES (N-2-hydroxyethylpiperazine-N′-2-ethanesulfonic acid) and 0.15 mol/l NaCl.” for “buffer.”
Thereafter, an ethanolamine/HCl solution (1M, pH 8.5) was added to the measurement chip, followed by washing with an HBS-N buffer (manufactured by Biacore), so as to block COOH groups that remained without reacting with trypsin.
By the aforementioned operations, trypsin was immobilized on the surface of the measurement chip via a covalent bond. The amount by which resonance signals (RU value) obtained before the addition of trypsin and after washing it had changed was defined as the immobilized amount of trypsin (RU value).
A measurement chip was washed with an HBS-N buffer. Thereafter, the measurement chip was equipped into a surface plasmon resonance measurement device, and a leupeptin solution (0.002 mM, HBS-N buffer) was added thereto, followed by leaving at rest for 10 minutes. The amount by which resonance signals (RU value) had changed was defined as the amount of leupeptin (manufactured by ICN) binding to trypsin.
A measurement chip was washed with an HBS-N buffer.
A measurement chip was washed with an HBS-N buffer. Thereafter, the measurement chip was equipped into a surface plasmon resonance measurement device, and a chymostatin solution (0.002 mM, HBS-N buffer) was added thereto, followed by leaving at rest for 10 minutes. The amount by which resonance signals (RU value) had changed was defined as the amount of chymostatin (manufactured by ICN) binding to trypsin.

[3] = target: T1, Trypsin; test: Enzyme activity of immobilized trypsin with Bz-Arg-MCA, fluorescence of decomposed product, same hydrogel chip (Examples 1-4); type: biochemical; conditions: for Measurement results of fluorescence intensity (120 minutes): 0.002 mM substance, 0.1 mM Bz-Arg-MCA, excitation 380 nm, emission 460 nm, no substance: 580; for Inhibitory action on the enzyme activity of trypsin (in words): comment on Table 1
Method: Using the chip after the measurement of the amount of leupeptin binding to trypsin described in (2) above, the enzyme activity of trypsin was measured. Specifically, a substrate specific to trypsin (benzoyl-L-arginine-4-methylcoumarin-7-amide (hereinafter referred to as Bz-Arg-MCA); Peptide Institute, Inc.) was allowed to react with trypsin, and fluorescence in the decomposed product was measured.
The HBS-N buffer contained in the measurement chip was removed, and a leupeptin solution (0.002 mM, HBS-N buffer) and 0.1 mM Bz-Arg-MCA were added thereto. The reaction was then carried out for 10, 30, 60, and 120 minutes.
Fluorescence measurement was carried out regarding the reaction for each of the aforementioned reaction times, using the BMGLabTechnologies FLUOstar measurement device (excitation: 380 nm; and emission: 460 nm).
(§2) Specifically, a substrate specific to trypsin (benzoyl-L-arginine-4-methylcoumarin-7-amide (hereinafter referred to as Bz-Arg-MCA); Peptide Institute, Inc.) was allowed to react with trypsin, and fluorescence in the decomposed product was measured.
The reaction was then carried out for 10, 30, 60, and 120 minutes.
Fluorescence measurement was carried out regarding the reaction for each of the aforementioned reaction times, using the BMGLabTechnologies FLUstar measurement device (excitation: […]; and emission: 460 nm).
Using the chip after the measurement of the amount of chymostatin binding to trypsin in (2) above, the enzyme activity of trypsin was measured. Specifically, a substrate specific to trypsin (benzoyl-L-arginine-4-methylcoumarin-7-amide (hereinafter referred to as Bz-Arg-MCA); Peptide Institute, Inc.) was allowed to react with trypsin, and fluorescence in the decomposed product was measured.
The HBS-N buffer contained in the measurement chip was removed, and a chymostatin solution (0.002 mM, HBS-N buffer) and 0.1 mM Bz-Arg-MCA were added thereto. The reaction was then carried out for 10, 30, 60, and 120 minutes.
(§3) Fluorescence measurement was carried out regarding the reaction for each of the aforementioned reaction times, using the BMGLabTechnologies FLUstar measurement device (excitation: 380 nm; and emission: 460 nm).

[4] = target: T1, Trypsin; test: Enzyme activity of trypsin on PMMA chip with Bz-Arg-MCA, fluorescence (Example 5); type: biochemical; conditions: leupeptin 0.002 mM, 0.1 mM Bz-Arg-MCA
Method: Using the PMMA chip after the measurement of the amount of leupeptin binding to trypsin in (2) above, the enzyme activity of trypsin was measured. Specifically, a substrate specific to trypsin (benzoyl-L-arginine-4-methylcoumarin-7-amide (hereinafter referred to as Bz-Arg-MCA); Peptide Institute, Inc.) was allowed to react with trypsin, and fluorescence in the decomposed product was measured.
The inside of the PMMA measurement chip was washed with an HBS-N buffer. Thereafter, a leupeptin solution (0.002 mM, HBS-N buffer) and 0.1 mM Bz-Arg-MCA were added thereto. The reaction was then carried out for 10, 30, 60, and 120 minutes.
as §3

[5] = target: T1, Trypsin; test: Selection of compounds due to biological activity: trypsin enzyme activity with Bz-Arg-MCA, fluorescence (Example 7); type: biochemical
Method: as §2
Thereafter, the reaction was then carried out for 10, 30, 60, and 120 minutes.
as §3

[6] = target: T1, Trypsin; test: SPR binding to trypsin on PMMA measurement chip, Biacore 3000 (Example 5); conditions: leupeptin 0.002 mM, 10 minutes
Method: Trypsin (manufactured by Worthington) was immobilized on a PMMA measurement chip. Interaction measurement was carried out using a surface plasmon resonance measurement device (Biacore 3000).
A PMMA measurement chip was equipped into Biacore 3000. A mixed solution of 1-ethyl-2,3-dimethylaminopropylcarbodiimide (400 mM) and N-hydroxysulfosuccinimide (100 mM) was added thereto, followed by reaction for 7 minutes. Thereafter, trypsin (0.05 mg/ml, 10 mM CaCl2-containing HBS-N buffer) was added thereto, followed by reaction for 7 minutes.
Thereafter, an ethanolamine/HCl solution (1M, pH 8.5) was added to the measurement chip, followed by reaction for 7 minutes, so as to block COOH groups that remained without reacting with trypsin.
By the aforementioned operations, trypsin was immobilized on the surface of the PMMA measurement chip via a covalent bond. The amount by which resonance signals (RU value) obtained before the addition of trypsin and after washing it had changed was defined as the immobilized amount of trypsin (RU value).
A leupeptin solution (0.002 mM, HBS-N buffer) was added to a measurement chip, followed by reaction for 10 minutes. The amount by which resonance signals (RU value) had changed was defined as the amount of leupeptin (manufactured by ICN) binding to trypsin.

| SMILES | Binding amount (RU) [1] | Bond of substance interacting with trypsin (RU) [2] | Binding to trypsin (in words) [2] | Measurement results of fluorescence intensity (120 minutes) [3] | Inhibitory action on the enzyme activity of trypsin (in words) [3] | Binding observed, selection of compounds (in words) ([1]; Example 6 (3)) | Selection due to binding amount ([1]; symbols ◯ / X, key not given) | Fluorescence intensity, compared with CM5 cup [4] | Measurement value of fluorescence intensity ([5]; 4 μM compound solution mixed 1:1 with 0.2 mM Bz-Arg-MCA, reaction time of the value not given, no compound: 594) | Inhibition of the enzyme activity of trypsin, selection of compounds (in words) ([5]; Example 7 (3)) | Selection due to enzyme activity ([5]; symbols ◯ / X, key not given) | Binding amount of substance interacting with trypsin, compared with CM5 cup [6] |
| --- | --- | --- | --- | --- | --- | --- | --- | --- | --- | --- | --- | --- |
| CC(C)C[C@H](NC(=O)[C@@H](NC(=O)N[C@@H](Cc1ccccc1)C(=O)O)[C@@H]1CCN=C(N)N1)C(=O)N[C@H](C=O)Cc1ccccc1 [Chymostatin] | 0 RU | 0 RU | did not bind to trypsin | 576 | no inhibitory action on the enzyme activity of trypsin was observed |  |  |  |  |  |  |  |
| CC(=O)N[C@@H](CC(C)C)C(=O)N[C@@H](CC(C)C)C(=O)N[C@H](C=O)CCCNC(=N)N [Leupeptin] | 23 RU | 22 RU | bound to the enzyme activity site of trypsin | 2 | inhibiting the enzyme activity | the binding of which were observed, were selected | ◯ | equivalent to the values obtained with CM5 cup | 3 | inhibited the enzyme activity of trypsin | ◯ | equivalent to the values obtained with CM5 cup |
